# Read-outs that look alike come from different tables or passages of the source.
# What was measured:
# [1] = target: hT2R71 (Homo sapiens (Human), UniProt P59536); assay: hT2R panel inhibition, transient HEK293 G16g44, agonist Picric Acid 10 μM; type: cell-based; conditions: HEK293, compound at 25 μM
# How it was run: (§1)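 Receptor activity was measured in functional assays after single-receptor transient transfection; bitter agonists were used at their EC80 levels. A decrease in that activity when the test compound was added was taken as inhibition.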
# [2] = target: hT2R13 (Homo sapiens (Human), UniProt Q9NYV9); assay: hT2R panel inhibition, transient HEK293 G16g44, agonist Oxyphenonium 1 mM; type: cell-based; conditions: HEK293, compound at 25 μM
# How it was run: as §1
# [3] = tested on: hT2R65; assay: hT2R panel inhibition, transient HEK293 G16g44, agonist Oleuropein 1 mM; type: cell-based, human; conditions: compound at 25 μM; for screening result against bitter receptor 65: receptor activated to EC80 with the corresponding agonist
# How it was run: as §1
# [4] = target: hT2R7 (Homo sapiens (Human), UniProt Q9NYW3); assay: hT2R panel inhibition, transient HEK293 G16g44, agonist Chloroquine pH6.5 10 mM; type: cell-based; conditions: HEK293, compound at 25 μM
# How it was run: as §1
# [5] = target: hT2R64 (Homo sapiens (Human), UniProt P59538); assay: hT2R panel inhibition, transient HEK293 G16g44, agonist Aristolochic Acid 1 μM; type: cell-based; conditions: HEK293, compound at 25 μM
# How it was run: as §1
# [6] = target: hT2R61 (Homo sapiens (Human), UniProt P59537); assay: hT2R panel inhibition, transient HEK293 G16g44, agonist Aristolochic Acid 25 nM; type: cell-based; conditions: HEK293, compound at 25 μM
# How it was run: as §1
# [7] = target: hT2R5 (Homo sapiens (Human), UniProt Q9NYW4); assay: hT2R panel inhibition, transient HEK293 G16g44, agonist Picoline 10 mM; type: cell-based; conditions: HEK293, compound at 25 μM
# How it was run: as §1
# [8] = tested on: hT2R67; assay: hT2R panel inhibition, transient HEK293 G16g44, agonist Andrographolide 5 μM; type: cell-based, human; conditions: compound at 25 μM; for screening result against bitter receptor 67: receptor activated to EC80 with the corresponding agonist
# How it was run: as §1
# [9] = target: hT2R9 (Homo sapiens (Human), UniProt Q9NYW1); assay: hT2R panel inhibition, transient HEK293 G16g44, agonist Ofloxacin 1 mM; type: cell-based; conditions: HEK293, compound at 25 μM
# How it was run: as §1
# [10] = target: hT2R75 (Homo sapiens (Human), UniProt P59540); assay: hT2R panel inhibition, transient HEK293 G16g44, agonist Strychnine 1 μM; type: cell-based; conditions: HEK293, read-out: screening result against bitter receptor 75, compound at 25 μM; receptor activated to EC80 with the corresponding agonist
# [11] = target: hT2R16 (Homo sapiens (Human), UniProt Q9NYV7); assay: hT2R panel inhibition, transient HEK293 G16g44, agonist Salicin 1 mM; type: cell-based; conditions: HEK293, compound at 25 μM
# How it was run: as §1
# [12] = target: T1, hT2R14 (Homo sapiens (Human), UniProt Q9NYV8); assay: hT2R14 antagonist high-throughput FLIPR assay, stable cell line with G16g44, agonist aristolochic acid; type: cell-based; conditions: read-out: IC50 on hT2R14 bitter receptor
# How it was run: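 HEK293 cells stably expressing hT2R14 with chimeric G16g44 were stimulated with aristolochic acid (3 μM), giving 70-80% of maximal receptor activity. Test compounds were added together with the agonist, and antagonism was read as fluorescent calcium signal on FLIPR.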
# [13] = target: hT2R3 (Homo sapiens (Human), UniProt Q9NYW6); assay: hT2R panel inhibition, transient HEK293 G16g44, agonist Chloroquine pH6.5 50 μM; type: cell-based; conditions: HEK293, compound at 25 μM
# How it was run: as §1
# [14] = tested on: hT2R63; assay: hT2R panel inhibition, transient HEK293 G16g44, agonist Caffeine 1 mM or Andrographolide 100 μM; type: cell-based, human; conditions: compound at 25 μM; for screening result against bitter receptor 63: receptor activated to EC80 with the corresponding agonist
# How it was run: as §1
# [15] = target: T1, hT2R14; assay: hT2R panel inhibition, transient HEK293 G16g44, agonist Aristolochic Acid 2 μM; type: cell-based; conditions: HEK293, compound at 25 μM
# How it was run: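 Each hT2R was transiently transfected into HEK293 cells stably expressing G16g44 and assayed functionally for inhibition of agonist response. Agonists were applied at EC80: andrographolide at 0.5 mM for hT2R8 and aristolochic acid at 2 μM for hT2R14.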
# [16] = tested on: hT2R55; assay: hT2R panel inhibition, transient HEK293 G16g44, agonist Cinchonine 150 μM; type: cell-based, human; conditions: compound at 25 μM; for screening result against bitter receptor 55: receptor activated to EC80 with the corresponding agonist
# How it was run: as §1
# [17] = target: hT2R10 (Homo sapiens (Human), UniProt Q9NYW0); assay: hT2R panel inhibition, transient HEK293 G16g44, agonist Strychnine 50 μM; type: cell-based
# [18] = target: hT2R51 (Homo sapiens (Human), UniProt P59533); assay: hT2R panel inhibition, transient HEK293 G16g44, agonist Prop 2.5 μM; type: cell-based; conditions: HEK293, compound at 25 μM
# How it was run: as §1
# [19] = tested on: hT2R44; assay: hT2R panel inhibition, transient HEK293 G16g44, agonist Denatonium 0.5 μM; type: cell-based, human; conditions: compound at 25 μM; for screening result against bitter receptor 44: receptor activated to EC80 with the corresponding agonist
# How it was run: as §1
# [20] = target: hT2R8 (Homo sapiens (Human), UniProt Q9NYW2); assay: hT2R panel inhibition, transient HEK293 G16g44, agonist Andrographolide 0.5 mM; type: cell-based; conditions: HEK293, compound at 25 μM
# Method: Specifically, in order to evaluate the inhibitory selectivity of the Compound C compound, this compound was tested against 22 human T2Rs which were deorphaned by Senomyx. These receptors and the bitter ligands that activate these human T2Rs are reported in earlier patent applications which are incorporated by reference herein. These 22 human T2Rs are hT2R1, 3, 4, 5, 7, 8, 9, 10, 13, 14, 16, 44, 51, 54, 55, 61, 63, 64, 65, 67, 71 and 75. The amino acid and nucleic acid sequences of all of these T2Rs may be found in these earlier patent applications. These human T2Rs were each individually transiently transfected into HEK293 cells that stably express the promiscuous G protein G16g44 and functional assays were effected using these receptors as disclosed in these same patent applications. […] The ligands were used at EC80 concentration levels. The list of bitter ligands utilized and the tested ligand concentrations are contained in Table 5 of this example.
# [21] = tested on: hT2R54; assay: hT2R panel inhibition, transient HEK293 G16g44, agonist Ranitidine 5 mM; type: cell-based, human; conditions: compound at 25 μM; for screening result against bitter receptor 54: receptor activated to EC80 with the corresponding agonist
# How it was run: as §1
# [22] = target: hT2R4 (Homo sapiens (Human), UniProt Q9NYW5); assay: hT2R panel inhibition, transient HEK293 G16g44, agonist Chloroquine pH6.5 5 mM; type: cell-based; conditions: HEK293, compound at 25 μM; receptor activated to EC80 with agonist; read-out: inhibition of bitter receptor 4
# How it was run: as §1
# [23] = receptor activated to EC80 with the corresponding agonist, read-out: screening result against bitter receptor 71
# [24] = receptor activated to EC80 with the corresponding agonist, read-out: screening result against bitter receptor 7
# [25] = receptor activated to EC80 with the corresponding agonist, read-out: screening result against bitter receptor 64
# [26] = receptor activated to EC80 with the corresponding agonist, read-out: screening result against bitter receptor 61
# [27] = receptor activated to EC80 with the corresponding agonist, read-out: screening result against bitter receptor 5
# [28] = receptor activated to EC80 with the corresponding agonist, read-out: screening result against bitter receptor 16
# [29] = receptor activated to EC80 with the corresponding agonist, read-out: screening result against bitter receptor 3
# [30] = receptor activated to EC80 with the corresponding agonist, read-out: screening result against bitter receptor 14
# [31] = HEK293, read-out: screening result against bitter receptor 10, compound at 25 μM, receptor activated to EC80 with the corresponding agonist
# [32] = receptor activated to EC80 with the corresponding agonist, read-out: screening result against bitter receptor 51
# [33] = receptor activated to EC80 with the corresponding agonist, read-out: screening result against bitter receptor 8
# [34] = receptor activated to EC80 with agonist
# Sequence of hT2R61 (P59537 whole entry): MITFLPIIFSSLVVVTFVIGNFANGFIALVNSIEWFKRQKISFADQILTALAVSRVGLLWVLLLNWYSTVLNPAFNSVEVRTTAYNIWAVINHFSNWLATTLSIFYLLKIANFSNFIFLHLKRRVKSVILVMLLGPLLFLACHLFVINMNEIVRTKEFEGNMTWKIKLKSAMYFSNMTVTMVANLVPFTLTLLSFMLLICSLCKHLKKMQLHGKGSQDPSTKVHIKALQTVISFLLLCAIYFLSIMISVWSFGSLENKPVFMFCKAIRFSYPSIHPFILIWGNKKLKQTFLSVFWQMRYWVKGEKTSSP
# Sequence of hT2R64 (P59538 whole entry): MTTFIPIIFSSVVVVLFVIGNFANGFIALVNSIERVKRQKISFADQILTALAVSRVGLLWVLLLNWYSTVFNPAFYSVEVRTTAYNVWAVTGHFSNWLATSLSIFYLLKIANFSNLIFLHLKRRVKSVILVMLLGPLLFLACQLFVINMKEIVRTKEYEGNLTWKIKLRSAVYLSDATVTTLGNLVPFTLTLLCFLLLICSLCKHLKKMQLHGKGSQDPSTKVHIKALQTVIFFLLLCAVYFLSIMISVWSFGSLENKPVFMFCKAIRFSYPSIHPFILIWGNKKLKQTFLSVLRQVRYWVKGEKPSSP
# Sequence of hT2R10 (Q9NYW0 whole entry): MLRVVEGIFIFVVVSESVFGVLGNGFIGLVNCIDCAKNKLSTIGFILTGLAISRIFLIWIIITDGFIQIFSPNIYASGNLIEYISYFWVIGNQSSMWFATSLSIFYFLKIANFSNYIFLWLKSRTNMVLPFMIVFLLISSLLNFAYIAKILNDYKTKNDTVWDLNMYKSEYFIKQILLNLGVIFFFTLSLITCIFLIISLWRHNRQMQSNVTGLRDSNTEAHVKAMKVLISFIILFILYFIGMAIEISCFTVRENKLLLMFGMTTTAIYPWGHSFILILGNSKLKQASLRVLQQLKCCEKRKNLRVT
# T1 sequence (Q9NYV8 whole entry): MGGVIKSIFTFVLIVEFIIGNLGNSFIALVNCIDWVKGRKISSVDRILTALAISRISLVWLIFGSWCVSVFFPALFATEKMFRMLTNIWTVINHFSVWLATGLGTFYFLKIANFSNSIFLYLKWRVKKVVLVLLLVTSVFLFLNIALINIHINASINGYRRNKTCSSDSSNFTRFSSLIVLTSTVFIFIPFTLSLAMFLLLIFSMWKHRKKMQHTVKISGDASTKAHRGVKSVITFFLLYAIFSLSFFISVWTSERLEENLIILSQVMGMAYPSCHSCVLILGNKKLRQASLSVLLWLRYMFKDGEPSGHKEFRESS
# Sequence of hT2R71 (P59536 whole entry): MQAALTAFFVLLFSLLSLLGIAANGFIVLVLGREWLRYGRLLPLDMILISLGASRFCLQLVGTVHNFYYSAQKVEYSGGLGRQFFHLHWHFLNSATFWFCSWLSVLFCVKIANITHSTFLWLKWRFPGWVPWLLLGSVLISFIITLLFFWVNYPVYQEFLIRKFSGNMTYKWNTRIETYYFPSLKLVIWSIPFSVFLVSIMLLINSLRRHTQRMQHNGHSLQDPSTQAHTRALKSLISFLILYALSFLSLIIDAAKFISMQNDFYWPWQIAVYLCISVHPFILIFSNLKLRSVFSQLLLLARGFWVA
# Sequence of hT2R16 (Q9NYV7 whole entry): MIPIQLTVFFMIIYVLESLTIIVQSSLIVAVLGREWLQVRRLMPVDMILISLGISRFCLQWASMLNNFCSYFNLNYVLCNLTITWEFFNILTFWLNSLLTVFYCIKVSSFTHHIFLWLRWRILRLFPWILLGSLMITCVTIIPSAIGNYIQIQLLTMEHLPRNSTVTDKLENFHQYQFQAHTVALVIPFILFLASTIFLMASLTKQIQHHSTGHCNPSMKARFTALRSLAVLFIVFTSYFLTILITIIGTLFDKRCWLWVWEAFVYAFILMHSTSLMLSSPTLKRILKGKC
# Sequence of hT2R5 (Q9NYW4 whole entry): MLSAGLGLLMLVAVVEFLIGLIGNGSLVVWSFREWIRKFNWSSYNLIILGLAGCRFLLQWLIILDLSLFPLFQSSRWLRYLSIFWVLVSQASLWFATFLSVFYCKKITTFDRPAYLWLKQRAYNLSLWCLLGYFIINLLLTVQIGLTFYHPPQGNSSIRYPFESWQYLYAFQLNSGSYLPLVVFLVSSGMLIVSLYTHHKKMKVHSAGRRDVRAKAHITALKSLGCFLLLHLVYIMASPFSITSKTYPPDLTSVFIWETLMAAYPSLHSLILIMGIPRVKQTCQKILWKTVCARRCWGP
# Sequence of hT2R51 (P59533 whole entry): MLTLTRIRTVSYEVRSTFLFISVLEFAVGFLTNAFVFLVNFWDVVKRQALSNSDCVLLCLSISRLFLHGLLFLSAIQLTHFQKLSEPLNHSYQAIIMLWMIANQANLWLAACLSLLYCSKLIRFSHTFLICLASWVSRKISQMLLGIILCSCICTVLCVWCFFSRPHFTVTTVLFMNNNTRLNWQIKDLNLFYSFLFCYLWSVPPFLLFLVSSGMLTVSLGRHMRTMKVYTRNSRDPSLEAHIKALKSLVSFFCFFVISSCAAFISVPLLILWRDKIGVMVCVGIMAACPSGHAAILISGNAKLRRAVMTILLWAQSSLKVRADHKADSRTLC
# Sequence of hT2R8 (Q9NYW2 whole entry): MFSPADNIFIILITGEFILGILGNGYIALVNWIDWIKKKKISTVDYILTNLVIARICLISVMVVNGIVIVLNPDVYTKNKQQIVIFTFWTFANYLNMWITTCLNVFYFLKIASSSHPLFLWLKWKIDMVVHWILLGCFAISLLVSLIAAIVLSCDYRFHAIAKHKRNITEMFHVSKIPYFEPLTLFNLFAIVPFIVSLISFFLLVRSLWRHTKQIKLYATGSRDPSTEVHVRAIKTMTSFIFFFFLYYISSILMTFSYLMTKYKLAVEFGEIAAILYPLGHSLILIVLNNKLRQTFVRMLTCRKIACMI
# Sequence of hT2R7 (Q9NYW3 whole entry): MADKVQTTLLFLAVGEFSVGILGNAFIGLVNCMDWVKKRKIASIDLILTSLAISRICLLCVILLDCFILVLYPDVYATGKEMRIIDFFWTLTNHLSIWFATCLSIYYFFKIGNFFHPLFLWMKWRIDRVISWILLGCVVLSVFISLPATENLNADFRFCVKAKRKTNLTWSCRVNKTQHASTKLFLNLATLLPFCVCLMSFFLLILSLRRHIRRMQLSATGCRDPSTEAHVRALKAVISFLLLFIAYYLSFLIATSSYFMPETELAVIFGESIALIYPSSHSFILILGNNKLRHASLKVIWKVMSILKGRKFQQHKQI
# Sequence of hT2R3 (Q9NYW6 whole entry): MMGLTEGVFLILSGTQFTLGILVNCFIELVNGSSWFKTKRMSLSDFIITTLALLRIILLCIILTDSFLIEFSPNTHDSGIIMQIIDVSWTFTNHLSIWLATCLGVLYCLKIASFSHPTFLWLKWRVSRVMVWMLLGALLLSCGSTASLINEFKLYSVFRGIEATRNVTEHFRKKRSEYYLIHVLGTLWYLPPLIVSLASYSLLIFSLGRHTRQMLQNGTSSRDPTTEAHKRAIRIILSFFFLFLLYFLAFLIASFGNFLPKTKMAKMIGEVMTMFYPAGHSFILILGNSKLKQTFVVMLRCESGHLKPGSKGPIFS
# Sequence of hT2R75 (P59540 whole entry): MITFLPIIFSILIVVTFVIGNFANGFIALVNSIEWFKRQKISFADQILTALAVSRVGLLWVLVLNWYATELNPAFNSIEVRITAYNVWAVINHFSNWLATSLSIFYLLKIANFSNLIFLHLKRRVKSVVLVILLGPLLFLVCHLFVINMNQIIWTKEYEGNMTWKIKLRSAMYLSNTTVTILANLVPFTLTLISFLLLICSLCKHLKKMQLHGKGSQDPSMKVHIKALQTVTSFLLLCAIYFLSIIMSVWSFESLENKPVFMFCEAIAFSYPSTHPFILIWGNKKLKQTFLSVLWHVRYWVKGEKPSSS
# Sequence of hT2R13 (Q9NYV9 whole entry): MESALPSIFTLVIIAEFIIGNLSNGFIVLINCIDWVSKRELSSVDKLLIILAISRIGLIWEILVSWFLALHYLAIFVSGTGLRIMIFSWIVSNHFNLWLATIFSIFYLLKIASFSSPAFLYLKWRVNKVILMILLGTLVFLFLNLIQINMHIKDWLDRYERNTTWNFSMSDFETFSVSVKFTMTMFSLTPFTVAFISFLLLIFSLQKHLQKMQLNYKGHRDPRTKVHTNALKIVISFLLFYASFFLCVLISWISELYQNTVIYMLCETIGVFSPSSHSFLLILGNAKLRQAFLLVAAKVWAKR
# Sequence of hT2R9 (Q9NYW1 whole entry): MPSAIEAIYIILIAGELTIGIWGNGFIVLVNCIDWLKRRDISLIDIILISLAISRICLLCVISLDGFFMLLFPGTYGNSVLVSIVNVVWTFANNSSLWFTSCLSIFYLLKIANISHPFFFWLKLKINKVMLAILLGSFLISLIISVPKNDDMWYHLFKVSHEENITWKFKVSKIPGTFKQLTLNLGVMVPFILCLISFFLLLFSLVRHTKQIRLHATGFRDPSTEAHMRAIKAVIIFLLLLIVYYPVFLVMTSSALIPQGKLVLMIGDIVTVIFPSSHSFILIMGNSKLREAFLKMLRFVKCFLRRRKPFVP
# Sequence of hT2R4 (Q9NYW5 whole entry): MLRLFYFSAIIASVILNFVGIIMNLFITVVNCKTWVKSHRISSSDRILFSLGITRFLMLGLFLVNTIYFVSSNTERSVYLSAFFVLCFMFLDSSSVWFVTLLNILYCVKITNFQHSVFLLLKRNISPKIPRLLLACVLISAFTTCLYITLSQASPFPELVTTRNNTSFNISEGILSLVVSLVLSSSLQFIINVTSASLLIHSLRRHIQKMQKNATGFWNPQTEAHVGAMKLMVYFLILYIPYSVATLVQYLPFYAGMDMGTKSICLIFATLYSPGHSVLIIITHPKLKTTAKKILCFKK
smiles,measurement,setting,value
"COc1ccc(CN(Cc2cccc(Cl)c2)S(=O)(=O)c2ccc(C(=O)O)cc2)cc1 [Example 5-14, 4-(N-(3-chlorobenzyl)-N-(4-methoxybenzyl)sulfamoyl)benzoic acid]",inhibition at 25 µM,[1]; [23],> 80%
same,inhibition at 25 µM,"[2]; receptor activated to EC80 with the corresponding agonist, read-out: screening result against bitter receptor 13",20 to 40%
same,screening result against bitter receptor 65,[3],++++ (80% or greater inhibition = ++++)
same,inhibition at 25 µM,[4]; [24],60 to 80%
same,inhibition at 25 µM,[5]; [25],> 80%
same,inhibition at 25 µM,[6]; [26],> 80%
same,inhibition at 25 µM,[7]; [27],60 to 80%
same,screening result against bitter receptor 67,[8],++ (40% to 60% inhibition = ++)
same,inhibition at 25 µM,"[9]; receptor activated to EC80 with the corresponding agonist, read-out: screening result against bitter receptor 9",40 to 60%
same,inhibition at 25 µM,[10],40 to 60%
same,inhibition at 25 µM,[11]; [28],60 to 80%
same,IC50,[12],1880 nM
same,inhibition at 25 µM,[13]; [29],> 80%
same,screening result against bitter receptor 63,[14],++++ (80% or greater inhibition = ++++)
same,inhibition at 25 µM,[15]; [30],> 80%
same,screening result against bitter receptor 55,[16],++++ (80% or greater inhibition = ++++)
same,inhibition at 25 µM,[17]; [31],> 80%
same,inhibition at 25 µM,[18]; [32],60 to 80%
same,screening result against bitter receptor 44,[19],+++ (60% to 80% inhibition = +++)
same,inhibition at 25 µM,[20]; [33],20 to 40%
same,screening result against bitter receptor 54,[21],++++ (80% or greater inhibition = ++++)
"CC(C)Oc1ccc(CN(Cc2ccccc2)S(=O)(=O)c2ccc(C(=O)O)cc2)cc1 [Example 5-110, 4-(N-benzyl-N-(4-isopropoxybenzyl)sulfamoyl)benzoic acid]",inhibition at 25 µM,"[1]; receptor activated to EC80 with agonist, read-out: inhibition of bitter receptor 71",60 to 80%
same,inhibition at 25 µM,"[2]; receptor activated to EC80 with agonist, read-out: inhibition of bitter receptor 13",20 to 40%
same,inhibition of bitter receptor 65,[3]; [34],+++ (60% to 80% inhibition = +++)
same,inhibition at 25 µM,"[4]; receptor activated to EC80 with agonist, read-out: inhibition of bitter receptor 7",40 to 60%
same,inhibition at 25 µM,"[5]; receptor activated to EC80 with agonist, read-out: inhibition of bitter receptor 64",60 to 80%
same,inhibition at 25 µM,"[6]; receptor activated to EC80 with agonist, read-out: inhibition of bitter receptor 61",> 80%
same,inhibition at 25 µM,"[7]; receptor activated to EC80 with agonist, read-out: inhibition of bitter receptor 5",20 to 40%
same,inhibition of bitter receptor 67,[8]; [34],+ (20% to 40% inhibition = +)
same,inhibition at 25 µM,"[9]; receptor activated to EC80 with agonist, read-out: inhibition of bitter receptor 9",20 to 40%
same,inhibition at 25 µM,"[11]; receptor activated to EC80 with agonist, read-out: inhibition of bitter receptor 16",20 to 40%
same,inhibition at 25 µM,"[13]; receptor activated to EC80 with agonist, read-out: inhibition of bitter receptor 3",40 to 60%
same,inhibition of bitter receptor 63,[14]; [34],+++ (60% to 80% inhibition = +++)
same,inhibition at 25 µM,[22],60 to 80%
same,inhibition at 25 µM,"[15]; receptor activated to EC80 with agonist, read-out: inhibition of bitter receptor 14",> 80%
same,inhibition of bitter receptor 55,[16]; [34],++++ (80% or greater inhibition = ++++)
same,inhibition at 25 µM,"[17]; HEK293, read-out: inhibition of bitter receptor 10, compound at 25 μM, receptor activated to EC80 with agonist",40 to 60%
same,inhibition at 25 µM,"[18]; receptor activated to EC80 with agonist, read-out: inhibition of bitter receptor 51",40 to 60%
same,inhibition of bitter receptor 44,[19]; [34],+++ (60% to 80% inhibition = +++)
same,inhibition at 25 µM,"[20]; receptor activated to EC80 with agonist, read-out: inhibition of bitter receptor 8",20 to 40%
same,inhibition of bitter receptor 54,[21]; [34],+ (20% to 40% inhibition = +)
"Cc1ccc(CN(Cc2ccccc2)S(=O)(=O)c2ccc(C(=O)O)cc2)cc1 [Example 5-70, 4-(N-benzyl-N-(4-methylbenzyl)sulfamoyl)benzoic acid]",inhibition at 25 µM,[1]; [23],40 to 60%
same,screening result against bitter receptor 65,[3],++ (40% to 60% inhibition = ++)
same,inhibition at 25 µM,[4]; [24],20 to 40%
same,inhibition at 25 µM,[5]; [25],20 to 40%
same,inhibition at 25 µM,[6]; [26],40 to 60%
same,inhibition at 25 µM,[7]; [27],40 to 60%
same,screening result against bitter receptor 67,[8],+ (20% to 40% inhibition = +)
same,inhibition at 25 µM,[10],20 to 40%
same,inhibition at 25 µM,[11]; [28],40 to 60%
same,inhibition at 25 µM,[13]; [29],40 to 60%
same,screening result against bitter receptor 63,[14],++++ (80% or greater inhibition = ++++)
same,inhibition at 25 µM,[15]; [30],60 to 80%
same,screening result against bitter receptor 55,[16],+++ (60% to 80% inhibition = +++)
same,inhibition at 25 µM,[17]; [31],40 to 60%
same,inhibition at 25 µM,[18]; [32],40 to 60%
same,screening result against bitter receptor 44,[19],+ (20% to 40% inhibition = +)
same,inhibition at 25 µM,[20]; [33],20 to 40%
same,screening result against bitter receptor 54,[21],++ (40% to 60% inhibition = ++)

# From patent publication US9247759B2, “Identification of human T2R receptors that respond to bitter compounds that elicit the bitter taste in compositions, and the use thereof in assays to identify compounds that inhibit (block) bitter taste in compositions and use thereof” (SENOMYX, INC., priority 2007, dated 2016)
